≈ marks a conversion by molar mass, not a printed value.
Tests used:
[1] = tested on: P. aeruginosa ATCC 27853; test: MIC broth microdilution, P. aeruginosa ATCC 27853; assay type: cell-based; details: for MIC: Pseudomonas aeruginosa, ATCC27853, P. aeruginosa ATCC 27853, contains aph(3′)-IIb, read-out: Geometric Mean MIC values, P. aeruginosa ATCC 27853
Protocol: (§1) Minimum inhibitory concentrations for the example compounds herein are determined by the broth microdilution method in accordance with the Clinical and Laboratory Standards Institute (CLSI) guidelines. In brief, organism suspensions are adjusted to a 0.5 McFarland standard to yield a final inoculum between 3×10^5 and 7×10^5 colony-forming units (CFU)/mL. Compound dilutions and inocula are made in sterile, cation adjusted Mueller-Hinton Broth (Beckton Dickinson). The inoculum is prepared by suspension of a colony from an agar plate that is prepared the previous day. Bacteria are suspended in sterile saline and added to each assay plate to obtain a final concentration of 5×10^5 CFU/mL. An inoculum volume of 100 μL is added to wells containing 100 μL of broth with 2-fold serial dilutions of the compound. All inoculated microdilution trays are incubated in ambient air at 35° C. for 18-24 hours. Following incubation, the lowest concentration of the compound that prevents visible growth (OD 600 nm<0.05) is recorded as the MIC. […] Performance of the assay is monitored by the use of laboratory quality-control strains and a compound with a defined MIC spectrum (such as levofloxacin), in accordance with CLSI guidelines. Compounds are tested against multiple microbiologic panels. Panels include: 1) a multi-species primary screening panel that includes multiple defined AG-R mechanisms; 2) a panel of isogenic strains carrying different common mechanisms of AG-R that allows characterization of the SAR for AMEs, RMTs, and entry and efflux resistance mechanisms; and 3) panels of recent clinical isolates selected from Phase 3 studies and ongoing global surveillance.

[2] = tested on: P. aeruginosa Δefflux (MexAB-OprM, MexCD-OprJ, MexEF-OprN knocked out); test: MIC broth microdilution, P. aeruginosa Δefflux strain; assay type: cell-based
Protocol: as §1

[3] = tested on: translation; test: Translation Inhibition Assay; assay type: biochemical
Excerpt: Biological Example 2: Translation Inhibition Assay

[4] = tested on: P. aeruginosa efflux parent; test: MIC broth microdilution, P. aeruginosa efflux parent strain; assay type: cell-based; details: for MIC: Pseudomonas aeruginosa, P. aeruginosa efflux parent strain, read-out: Geometric Mean MIC values, P. aeruginosa efflux parent
Protocol: as §1

[5] = tested on: E. coli ATCC 25922; test: Minimum inhibitory concentration (broth microdilution, CLSI), E. coli ATCC 25922; assay type: cell-based; details: Table 1; geometric mean
Protocol: as §1

[6] = tested on: E. coli Δefflux (tolC efflux pump knocked-out); test: MIC broth microdilution, E. coli Δefflux strain (tolC knocked out); assay type: cell-based; details: Table 1
Protocol: as §1

[7] = tested on: E. coli efflux parent; test: MIC broth microdilution, E. coli efflux parent strain; assay type: cell-based; details: Table 1; geometric mean
Protocol: as §1

[8] = Table 2, strain contains aph(3′)-IIb
[9] = Table 2, MexEF-OprN efflux pumps knocked out
[10] = Table 1, MexEF-OprN efflux pumps knocked out
[11] = P. aeruginosa Δefflux, MexEF-OprN efflux pumps knocked out

| SMILES | Geometric Mean MIC values, P. aeruginosa ATCC 27853 [1, 8] [µg/mL] | Geometric Mean MIC values, P. aeruginosa Δefflux [2, 9] [µg/mL] | IC50 ([3]; Table 2) [nM] | Geometric Mean MIC values, P. aeruginosa efflux parent ([4]; Table 2) [µg/mL] | further results |
| --- | --- | --- | --- | --- | --- |
| NC[C@@H]1O[C@H](O[C@H]2[C@@H](O)[C@H](O[C@@H]3[C@@H](O)[C@H](N)C[C@H](N)[C@H]3O[C@H]3O[C@H](CN)[C@H](O)[C@H](F)[C@H]3N)O[C@@H]2CO)[C@H](N)[C@@H](O)[C@@H]1O | 1 | 0.5 | 18 | 2 | – |
| NC[C@@H]1O[C@H](O[C@H]2[C@@H](O)[C@H](O[C@@H]3[C@@H](O)[C@H](N)C[C@H](N)[C@H]3O[C@H]3O[C@H](CN)C(F)(F)[C@H](O)[C@H]3N)O[C@@H]2CO)[C@H](N)[C@@H](O)[C@@H]1O | 64 | 1 | 13 | 8 | – |
| NCC1OC(OC2C(CO)OC(OC3C(O)C(N)CC(N)C3OC3OC(CN)C(O)C(F)(F)C3N)C2O)C(N)C(O)C1O (stereo not shown) [drawing 854] | – | – | – | – | Geometric Mean MIC values, P. aeruginosa ATCC 27853 ([1]; Table 1, geometric mean): 4 µg/mL; Geometric Mean MIC values, P. aeruginosa Δefflux [2, 10]: 1 µg/mL; IC50 ([3]; Table 1): 63 nM; Geometric Mean MIC values, E. coli ATCC 25922 [5]: 4 µg/mL; Geometric Mean MIC values, E. coli Δefflux [6]: 2 µg/mL; Geometric Mean MIC values, E. coli efflux parent [7]: 4 µg/mL; Geometric Mean MIC values, P. aeruginosa efflux parent ([4]; Table 1, geometric mean): 8 µg/mL |
| NCC1OC(OC2C(CO)OC(OC3C(O)C(N)CC(N)C3OC3OC(CN)C(O)C(F)C3O)C2O)C(N)C(O)C1O (stereo not shown) [drawing 883] | 2 | 0.5 | 24 | 4 | – |
| NC[C@@H]1O[C@H](O[C@H]2[C@@H](O)[C@H](O[C@@H]3[C@@H](O)[C@H](N)C[C@H](N)[C@H]3O[C@H]3O[C@H](CN)[C@@H](O)C(F)(F)[C@H]3N)O[C@@H]2CO)[C@H](N)[C@@H](O)[C@@H]1O | 4 | 1 | 62 | 8 | – |
| CC(N)C1CCC(N)C(OC2C(N)CC(N)C(O)C2OC2OC(CO)C(OC3OC(CN)C(O)C(O)C3N)C2O)O1 (stereo not shown) [drawing 850] | – | – | – | – | Geometric Mean MIC values, P. aeruginosa ATCC 27853 ([1]; Table 1, geometric mean): 2 µg/mL; Geometric Mean MIC values, P. aeruginosa Δefflux [2, 10]: 0.5 µg/mL; IC50 ([3]; Table 1): 14 nM; Geometric Mean MIC values, E. coli ATCC 25922 [5]: 2.5 µg/mL; Geometric Mean MIC values, E. coli Δefflux [6]: 1 µg/mL; Geometric Mean MIC values, E. coli efflux parent [7]: 1 µg/mL; Geometric Mean MIC values, P. aeruginosa efflux parent ([4]; Table 1, geometric mean): 4 µg/mL |
| CCC(N)C1CCC(N)C(OC2C(N)CC(N)C(O)C2OC2OC(CO)C(OC3OC(CN)C(O)C(O)C3N)C2O)O1 (stereo not shown) [drawing 876] | 1.4 | 0.5 | 32 | 2 | – |
| NCC1CCC(N)C(OC2C(N)CC(N)C(O)C2OC2OC(CO)C(OC3OC(CN)C(O)C(O)C3N)C2O)O1 (stereo not shown) [drawing 872, reference compound] | 0.53 | 0.4 | 10 | 0.73 | – |
| NCC1CCC(N)C(OC2C(N)CC(N)C(O)C2OC2OC(CO)C(OC3OC(CN)C(O)C(O)C3N)C2O)O1 (stereo not shown) [drawing 848] | – | – | – | – | Geometric Mean MIC values, P. aeruginosa ATCC 27853 ([1]; Table 1, geometric mean): 0.57 µg/mL; Geometric Mean MIC values, P. aeruginosa Δefflux [2, 10]: 0.5 µg/mL; IC50 ([3]; Table 1): 13 nM; Geometric Mean MIC values, E. coli ATCC 25922 [5]: 1.1 µg/mL; Geometric Mean MIC values, E. coli Δefflux [6]: 1.4 µg/mL; Geometric Mean MIC values, E. coli efflux parent [7]: 1.4 µg/mL; Geometric Mean MIC values, P. aeruginosa efflux parent ([4]; Table 1, geometric mean): 0.77 µg/mL |
| CCC(N)C1CCC(N)C(OC2C(N)CC(N)C(O)C2OC2OC(CO)C(OC3OC(CN)C(O)C(O)C3N)C2O)O1 (stereo not shown) [drawing 851] | – | – | – | – | Geometric Mean MIC values, P. aeruginosa ATCC 27853 ([1]; Table 1, geometric mean): 2 µg/mL; Geometric Mean MIC values, P. aeruginosa Δefflux [2, 10]: 0.5 µg/mL; IC50 ([3]; Table 1): 32 nM; Geometric Mean MIC values, E. coli ATCC 25922 [5]: 2 µg/mL; Geometric Mean MIC values, E. coli Δefflux [6]: 1 µg/mL; Geometric Mean MIC values, E. coli efflux parent [7]: 2 µg/mL; Geometric Mean MIC values, P. aeruginosa efflux parent ([4]; Table 1, geometric mean): 2 µg/mL |
| CO[C@@H]1[C@@H](O[C@@H]2O[C@H](CO)[C@@H](O[C@H]3O[C@@H](CN)[C@@H](O)[C@H](O)[C@H]3N)[C@H]2O)[C@H](O[C@H]2O[C@H](CN)CC[C@H]2N)[C@@H](N)C[C@H]1N [drawing 891] | – | – | – | – | MIC [1]: 1 µg/mL (≈ 1.68 µM); Geometric Mean MIC values, P. aeruginosa Δefflux [2, 11]: 0.25 µg/mL; IC50 ([3]; translation inhibition assay): 5.7 nM; MIC [4]: 1 µg/mL (≈ 1.68 µM) |
| CCC(N)C1CCC(N)C(OC2C(N)CC(N)C(O)C2OC2OC(CO)C(OC3OC(CN)C(O)C(O)C3N)C2O)O1 (stereo not shown) [drawing 877] | 1 | 0.5 | 26 | 2 | – |
| NCC1OC(OC2C(CO)OC(OC3C(O)C(N)CC(N)C3OC3OC(CN)C(O)C(F)C3N)C2O)C(N)C(O)C1O (stereo not shown) [drawing 882] | 1 | 0.5 | 10 | 2 | – |
| NCC1OC(OC2C(CO)OC(OC3C(O)C(N)CC(N)C3OC3OC(C4(N)CC4)CCC3N)C2O)C(N)C(O)C1O (stereo not shown) [drawing 875] | 2 | 0.25 | 7.5 | 2 | – |
| CC(N)C1CCC(N)C(OC2C(N)CC(N)C(O)C2OC2OC(CO)C(OC3OC(CN)C(O)C(O)C3N)C2O)O1 (stereo not shown) [drawing 874] | 2 | 0.5 | 14 | 4 | – |
| CC(N)C1CCC(N)C(OC2C(N)CC(N)C(O)C2OC2OC(CO)C(OC3OC(CN)C(O)C(O)C3N)C2O)O1 (stereo not shown) [drawing 849] | – | – | – | – | Geometric Mean MIC values, P. aeruginosa ATCC 27853 ([1]; Table 1, geometric mean): 0.71 µg/mL; Geometric Mean MIC values, P. aeruginosa Δefflux [2, 10]: 0.5 µg/mL; IC50 ([3]; Table 1): 14 nM; Geometric Mean MIC values, E. coli ATCC 25922 [5]: 1.6 µg/mL; Geometric Mean MIC values, E. coli Δefflux [6]: 1 µg/mL; Geometric Mean MIC values, E. coli efflux parent [7]: 1 µg/mL; Geometric Mean MIC values, P. aeruginosa efflux parent ([4]; Table 1, geometric mean): 1 µg/mL |
| NC[C@@H]1CC[C@@H](N)[C@@H](O[C@@H]2[C@@H](N)[C@H](O)[C@@H](N)[C@H](O)[C@H]2O[C@@H]2O[C@H](CO)[C@@H](O[C@H]3O[C@@H](CN)[C@@H](O)[C@H](O)[C@H]3N)[C@H]2O)O1 [drawing 890] | – | – | – | – | MIC [1]: 0.5 µg/mL (≈ 0.835 µM); Geometric Mean MIC values, P. aeruginosa Δefflux [2, 11]: 0.25 µg/mL; IC50 ([3]; translation inhibition assay): 7.9 nM; MIC [4]: 1 µg/mL (≈ 1.67 µM) |
| CC(N)C1CCC(N)C(OC2C(N)CC(N)C(O)C2OC2OC(CO)C(OC3OC(CN)C(O)C(O)C3N)C2O)O1 (stereo not shown) [drawing 873] | 0.84 | 0.42 | 12 | 1.2 | – |
| CCC(N)C1CCC(N)C(OC2C(N)CC(N)C(O)C2OC2OC(CO)C(OC3OC(CN)C(O)C(O)C3N)C2O)O1 (stereo not shown) [drawing 852] | – | – | – | – | Geometric Mean MIC values, P. aeruginosa ATCC 27853 ([1]; Table 1, geometric mean): 1 µg/mL; Geometric Mean MIC values, P. aeruginosa Δefflux [2, 10]: 0.5 µg/mL; IC50 ([3]; Table 1): 26 nM; Geometric Mean MIC values, E. coli ATCC 25922 [5]: 1 µg/mL; Geometric Mean MIC values, E. coli Δefflux [6]: 1 µg/mL; Geometric Mean MIC values, E. coli efflux parent [7]: 2 µg/mL; Geometric Mean MIC values, P. aeruginosa efflux parent ([4]; Table 1, geometric mean): 2 µg/mL |
| NC[C@@H]1O[C@H](O[C@H]2[C@@H](O)[C@H](O[C@@H]3[C@@H](O)[C@H](N)C[C@H](N)[C@H]3O[C@H]3O[C@H](CN)[C@@H](O)[C@H](O)[C@H]3N)O[C@@H]2CO)[C@H](N)[C@@H](O)[C@@H]1O [drawing 881, neomycin, reference compound] | 1 | 2.2 | 7.3 | 6.8 | – |
| NCC1OC(OC2C(N)CC(N)C(O)C2OC2OC(CO)C(OC3OC(CN)C(O)C(O)C3N)C2O)C(N)CC1O (stereo not shown) [drawing 880, reference compound] | 0.25 | 0.25 | 8.5 | 0.5 | – |
| NCC1OC(OC2C(CO)OC(OC3C(O)C(N)CC(N)C3OC3OC(CN)C(O)C(F)C3N)C2O)C(N)C(O)C1O (stereo not shown) [drawing 884] | 4 | 2 | 100 | 8 | – |

— patent publication US11414450B1, “Aminoglycosides and uses thereof” (REVAGENIX, INC., priority 2017, dated 2022)
